This is an account of results in ChEMBL document CHEMBL1147744, “Discovery of two novel, small-molecule inhibitors of DNA methylation” (J Med Chem, 2006).

The target in assay [1] is DNA (cytosine-5)-methyltransferase 1 (Homo sapiens, UniProt P26358). As to the kind of experiment: Inhibitory activity against DNA methyl transferase in leukemic NALM6 cells. Format: cell-based, NALM-6.
Assay [2] addresses Orphan methyltransferase M.SssI (Spiroplasma monobiae, UniProt P15840). As to the kind of experiment: Inhibition of recombinant CpG methylase M.SssI.

Each structure is given as a SMILES string.

Sequence of DNA (cytosine-5)-methyltransferase 1 (P26358 whole entry): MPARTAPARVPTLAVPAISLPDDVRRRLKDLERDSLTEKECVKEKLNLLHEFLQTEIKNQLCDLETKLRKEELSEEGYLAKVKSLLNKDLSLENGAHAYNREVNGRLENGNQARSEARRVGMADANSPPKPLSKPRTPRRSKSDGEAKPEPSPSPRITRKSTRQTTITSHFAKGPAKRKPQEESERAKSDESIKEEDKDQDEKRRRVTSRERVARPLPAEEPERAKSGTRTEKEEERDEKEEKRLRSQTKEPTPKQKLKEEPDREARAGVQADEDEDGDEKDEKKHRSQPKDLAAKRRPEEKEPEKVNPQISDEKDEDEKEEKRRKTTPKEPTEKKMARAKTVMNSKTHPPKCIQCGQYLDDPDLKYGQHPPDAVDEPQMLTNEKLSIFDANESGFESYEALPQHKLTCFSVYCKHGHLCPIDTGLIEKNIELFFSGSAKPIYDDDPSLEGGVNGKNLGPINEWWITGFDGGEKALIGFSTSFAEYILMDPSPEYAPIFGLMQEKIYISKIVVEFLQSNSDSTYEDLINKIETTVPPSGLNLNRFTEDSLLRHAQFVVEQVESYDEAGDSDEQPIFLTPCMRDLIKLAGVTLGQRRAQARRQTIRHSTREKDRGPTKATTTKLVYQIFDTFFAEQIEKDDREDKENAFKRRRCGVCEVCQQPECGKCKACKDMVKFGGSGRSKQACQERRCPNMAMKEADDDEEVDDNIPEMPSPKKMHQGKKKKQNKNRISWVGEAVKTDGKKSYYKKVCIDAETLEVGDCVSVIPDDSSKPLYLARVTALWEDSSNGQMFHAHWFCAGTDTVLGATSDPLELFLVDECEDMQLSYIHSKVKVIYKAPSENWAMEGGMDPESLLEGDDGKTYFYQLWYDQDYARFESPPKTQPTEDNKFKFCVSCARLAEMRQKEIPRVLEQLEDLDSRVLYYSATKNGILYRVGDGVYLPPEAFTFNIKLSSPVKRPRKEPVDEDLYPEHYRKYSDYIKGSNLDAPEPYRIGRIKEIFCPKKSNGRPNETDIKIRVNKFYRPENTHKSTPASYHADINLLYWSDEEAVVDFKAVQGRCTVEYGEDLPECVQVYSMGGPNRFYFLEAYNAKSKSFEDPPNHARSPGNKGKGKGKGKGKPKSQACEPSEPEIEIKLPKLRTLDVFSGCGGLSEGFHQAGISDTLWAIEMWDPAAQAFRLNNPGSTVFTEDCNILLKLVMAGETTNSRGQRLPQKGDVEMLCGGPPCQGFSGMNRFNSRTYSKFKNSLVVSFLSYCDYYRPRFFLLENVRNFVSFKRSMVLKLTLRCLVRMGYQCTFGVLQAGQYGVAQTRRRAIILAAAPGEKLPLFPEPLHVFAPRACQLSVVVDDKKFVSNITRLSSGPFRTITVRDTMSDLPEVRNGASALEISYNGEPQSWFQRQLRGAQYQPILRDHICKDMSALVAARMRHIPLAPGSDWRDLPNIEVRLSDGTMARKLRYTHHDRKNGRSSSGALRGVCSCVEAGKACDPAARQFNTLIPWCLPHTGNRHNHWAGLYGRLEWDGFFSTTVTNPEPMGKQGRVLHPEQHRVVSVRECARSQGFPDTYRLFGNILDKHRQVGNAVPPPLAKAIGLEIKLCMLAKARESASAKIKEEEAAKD
Sequence of Orphan methyltransferase M.SssI (P15840 whole entry): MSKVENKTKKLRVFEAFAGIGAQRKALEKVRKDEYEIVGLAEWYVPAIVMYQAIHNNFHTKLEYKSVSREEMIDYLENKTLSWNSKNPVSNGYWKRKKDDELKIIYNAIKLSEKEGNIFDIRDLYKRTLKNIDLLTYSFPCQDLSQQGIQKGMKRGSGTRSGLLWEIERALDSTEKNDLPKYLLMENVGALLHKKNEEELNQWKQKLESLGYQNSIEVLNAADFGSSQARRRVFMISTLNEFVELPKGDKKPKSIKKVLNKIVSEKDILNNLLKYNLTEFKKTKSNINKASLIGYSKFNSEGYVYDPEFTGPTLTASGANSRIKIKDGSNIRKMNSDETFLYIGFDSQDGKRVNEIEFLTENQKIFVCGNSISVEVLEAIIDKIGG

As usually defined, the IC50 is the concentration that inhibits the measured activity by half. On to `O=C(O)C(Cc1c[nH]c2ccccc12)N1C(=O)c2ccccc2C1=O` (centres undefined), for which the IC50 in assay [1] was 50 µM; in assay [2], 0.6 µM.
Taken in the same sequence, the figures for `Cc1ccn2c(CCc3nnc4cc(C)ccn34)nnc2c1` were 100 µM and 0.4 µM.
